The source made the active and inactive calls. How the calls were made is not given here.

This experiment has as its system Trypanosoma brucei growth inhibition, luminescence. As to the kind of experiment: Trypanosoma brucei growth inhibition, luminescence (AID 1159562).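 Further: parasites grew with compound for 24 h before the luminescence read.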
Broadly, the IC50 is the point on the concentration scale where inhibition reaches its midpoint. Consider `Cc1[nH]n2c(=O)c3c(nc2c1-c1ccc(Br)cc1)CCCC3`, for which the IC50 was 0.79 µM.

Take `Cc1[nH]nc(Nc2ccnc3[nH]ccc23)c1C`: the IC50 is 0.25 µM.

On to `COc1ccc(C(=O)NC2CCN(CCn3c(=O)ccc4ncc(F)cc43)CC2)cc1Cl`, for which the IC50 is 0.25 µM.

For the molecule `CC(C(=O)Nc1ccccc1F)N(C)CC(=O)Nc1cccc2ccccc12` (centres undefined), the IC50 is > 40 µM (inactive).

Turning to `O=C(CN1CCN(S(=O)(=O)c2cccc([N+](=O)[O-])c2)CC1)Nc1ccc(Oc2ccccc2)cc1`, the IC50 was 16 µM.

For the molecule `CCn1nccc1CN(C)C(=O)C=Cc1ccc(Cl)cc1`, the IC50 was > 40 µM (inactive).

For the molecule `CC(=O)NCCNc1cc(-c2ccnc(Nc3cccc(Cl)c3)n2)ccn1`, the IC50 was 0.2 µM.

Turning to `CN(Cc1cccnc1)Cc1ccc(N2CCN(C(=O)C3(c4ccc(Cl)cc4)CC3)CC2)nc1`, the IC50 is 25 µM.

As for `Cc1ccc(NC(=O)c2ccnc(N3CCCC3)c2)cc1-c1ccsc1C(N)=O`, the IC50 was 0.063 µM.

Take `CCCn1c(NC(=O)Cc2ccc(Cl)cc2)nc2ccccc21`: the IC50 is 3.2 µM.

Regarding `O=C(CN(Cc1ccccn1)Cc1ccccn1)NCc1csc(-c2cccs2)n1`, the IC50 was 16 µM.

With `CN(C)CCN(C)Cc1ccc(F)cc1NS(=O)(=O)c1ccc(Cl)c(Cl)c1`, the IC50 is 5 µM.

Turning to `O=C(Nc1ccc(C(F)(F)F)cc1)NC1(C(=O)NCc2ccco2)CCCCC1`, the IC50 was 1 µM.

With `O=C(c1ccc(O)c(Cl)c1)N1CCN(c2cnccn2)CC1`, the IC50 was > 40 µM (inactive).

On to `O=c1cc(NCCCNCc2c[nH]c3ccc(Br)cc23)[nH]c2ccccc12`, for which the IC50 was 0.79 µM.

For `CS(=O)(=O)c1ccccc1C(=O)N(Cc1ccccc1)c1ccccc1`, the IC50 was 0.63 µM.

In the case of `N#Cc1c(Oc2cccc(Cl)c2)cccc1[N+](=O)[O-]`, the IC50 is 0.005 µM.

In the case of `CCCn1c(NC(=O)CCn2cc(Br)cn2)nc2ccccc21`, the IC50 is 7.9 µM.

As to `CN(C)S(=O)(=O)c1cccc(CSc2nnc(-c3ccc4c(c3)OCO4)o2)c1`, the IC50 is > 40 µM (inactive).

For the molecule `Cc1ccc2nc(N(Cc3cccnc3)C(=O)CCc3ccccc3)sc2c1`, the IC50 was 20 µM.

Regarding `O=C(Nc1ncc([N+](=O)[O-])s1)C1CC1`, the IC50 was 40 µM.

For the molecule `Cc1nc(N2CCC(C(=O)N3CCC(O)(c4cccnc4)CC3)CC2)nc2ccc(C(C)C)cc12`, the 50% inhibitory concentration (IC50) was 32 µM.

Regarding `CCOc1cnn(C)c(=O)c1Nc1ccc(C(=O)NCc2ccc(F)cc2)cc1`, the IC50 was > 40 µM (inactive).

On to `COc1ccc(C(C)(C)C)cc1S(=O)(=O)n1ccnc1`, for which the IC50 is > 40 µM (inactive).

For `COCc1cnc2c(c1SCc1c(F)cccc1Cl)c(=O)n(C)c(=O)n2C`, the IC50 was > 40 µM (inactive).

`Cc1nn(C2CCS(=O)(=O)C2)c(C)c1CN(C)C(=O)C=Cc1sc2ccccc2c1Cl` (centres undefined): the IC50 is 25 µM.

Regarding `CCOc1ccc(CC(=O)N2c3ccccc3CC2C(=O)NC)cc1` (centres undefined), the IC50 was 0.5 µM.

On to `O=[N+]([O-])c1cccc(Nc2cncc(-c3ccccc3CO)c2)c1`, for which the IC50 was > 40 µM (inactive).

With `CCc1ccccc1[C@@H](C)NC(=O)c1cnc2c(cnn2CC)c1NC1CCN(C(N)=O)CC1`, the IC50 was 0.5 µM.

Regarding `Cc1cc2nc(N3CC[C@H]3C(N)=O)nc(Nc3cc(C4CC4)[nH]n3)c2s1`, the IC50 is 0.13 µM.

As to `Cc1ccc(C)c(CN2C(=O)NC3(CCc4ccccc43)C2=O)c1` (centres undefined), the IC50 was 1 µM.

Turning to `Cc1sc(C)c(C(F)(F)F)c1CNCCCNc1cc(=O)c2ccccc2[nH]1`, the IC50 was 0.013 µM.

Turning to `COc1ccnc2[nH]cc(-c3cc(C(=O)N[C@H](CO)c4ccccc4)co3)c12`, the IC50 was 0.013 µM.

Regarding `Cc1ccc(S(C)(=O)=O)cc1Nc1nccc(-c2sc(N)nc2-c2ccccc2)n1`, the IC50 was 1.6 µM.

For the molecule `CC1=NN(C(=O)CCn2cnc([N+](=O)[O-])n2)C(O)(C(F)(F)F)C1` (centres undefined), the IC50 is > 40 µM (inactive).

For `CC(C)(C)CC(=O)NCc1noc(COc2ccccc2)n1`, the IC50 is 0.79 µM.

For the molecule `CC(C)c1sc(Cl)nc1C(=O)NCCc1nc(C(=O)Nc2ccc3c(c2)OCO3)cs1`, the IC50 was 25 µM.

As to `NC(=O)c1ccccc1Nc1nc(NC2CCCCC2)nc2[nH]ccc12`, the IC50 was 10 µM.

On to `O=C(NC(CO)c1ccc(F)cc1)c1ccc(-c2c[nH]c3ncccc23)s1` (centres undefined), for which the IC50 was 0.79 µM.

Turning to `CS(=O)(=O)c1cccc(-c2cnc(N)c3c(-c4ccc(CO)cc4)csc23)c1`, the IC50 is 5 µM.

`CCNc1cc(-c2ccccn2)nc(Nc2ccccc2)n1`: the IC50 was 13 µM.

In the case of `CCCNC(=O)Nc1cccc(-c2nc3ncccc3o2)c1`, the IC50 was 1 µM.

In the case of `O=c1ccc2ccc(F)c3c2n1C[C@H]3CN1CCN(CC(O)c2cc3c(cn2)OCS3)CC1` (some centres undefined), the IC50 was 0.4 µM.

`COCCn1c(-c2ccccc2)cnc1NCc1ccccc1OC`: the IC50 is 16 µM.

On to `Cc1ccc(C)c(OC2CCN(C(=O)C(C)n3ccnc3)CC2)c1` (centres undefined), for which the IC50 was > 40 µM (inactive).

For the molecule `COc1ncc(-c2ccc3ncnc(N4CCOCC4)c3c2)cc1NS(C)(=O)=O`, the IC50 was 0.5 µM.

For the molecule `CC(CCc1ccccc1)NC(=O)CN(Cc1ccccn1)Cc1ccccn1` (centres undefined), the IC50 is 5 µM.

Turning to `NC(=O)c1ccsc1NC(=O)c1ccc([N+](=O)[O-])s1`, the IC50 was 1.6 µM.

Turning to `O=C(NCCc1csc(-c2cccc(F)c2)n1)c1ccco1`, the IC50 was 0.63 µM.

On to `O=C(Nc1nc(-c2ccccn2)cs1)c1ccc(S(=O)(=O)N2CCCCC2)cc1`, for which the IC50 is 0.63 µM.

Take `N#Cc1cc(N2CCCC2=O)ccc1Sc1ccccc1CO`: the IC50 is 32 µM.

For `COc1cccc(CCNC(=O)C(c2cn[nH]c2)N2CCN(c3ccc(Cl)cc3)CC2)c1` (centres undefined), the IC50 was 32 µM.

In the case of `O=C(NCC1CCCCC1)c1cc(=O)c2ccccc2o1`, the half-inhibitory concentration (IC50) was 1.3 µM.

For `CCC(CC)C(=O)Nc1ccc(-c2nnc(-c3ccc(OC)cc3)o2)cc1`, the IC50 is 0.5 µM.

On to `COc1ccc(-c2nc3ccncc3c(=O)n2CCOc2ccccc2)cc1`, for which the IC50 was 32 µM.

`CN(C)c1ccc(N)cc1CN(CC1CCCO1)S(C)(=O)=O` (centres undefined): the IC50 is > 40 µM (inactive).

Consider `COc1ccc(CN2CCCCC2c2nc(-c3cccnc3)no2)cc1` (centres undefined), for which the IC50 is > 40 µM (inactive).

As to `O=C(N1CCc2ccccc2CC1)C1(C(=O)N2CCC(n3c(=O)[nH]c4ncccc43)CC2)CC1`, the IC50 is > 40 µM (inactive).

On to `CCc1cccc(CC)c1-n1c(SCC(=O)NC(=O)NCc2ccco2)nnc1-c1cccnc1`, for which the IC50 was 0.79 µM.

Turning to `COc1ccc(-c2cc(C)no2)cc1S(=O)(=O)Nc1ccc(C)c(C)c1`, the IC50 is 20 µM.

On to `CC(=O)Nc1nc(-c2cc(C)ccc2C)c(C)s1`, for which the IC50 was > 40 µM (inactive).

As for `CCCc1cc(N)nc(-c2cc(CCC)cc(N)n2)c1`, the IC50 was 7.9 µM.

Turning to `O=C(NCC(c1cccnc1)N1CCc2ccccc2C1)C(=O)Nc1cccc(Cl)c1` (centres undefined), the IC50 is 20 µM.

In the case of `NC(=O)c1ccc(-c2cccc(OCCN3CCN(C4CCCCC4)CC3)c2)cc1`, the IC50 is 16 µM.

Take `O=C(Nc1ccc(C(=O)N2CCCC2c2ccc3c(c2)OCCCO3)cc1)c1ccco1` (centres undefined): the IC50 was 0.32 µM.

Take `Cc1cc(Nc2cc(C3CC3)[nH]n2)nc(N2CCCC2)n1`: the IC50 is 0.063 µM.

Consider `O=C(Cc1ccccc1)Nc1[nH]nc2sc(C(=O)NC3CCCC3)cc12`, for which the IC50 was 0.32 µM.

For the molecule `Cc1nn(-c2ccccc2)nc1CNC(=O)CN(Cc1ccccn1)Cc1ccccn1`, the IC50 was 10 µM.

On to `CC1(Oc2cncc(Cl)c2)CCN(Cc2cc3ccccc3[nH]2)C1` (centres undefined), for which the IC50 was > 40 µM (inactive).

As to `C[C@@H](Oc1cc(-n2cnc3ccc(C(O)CO)cc32)sc1C(N)=O)c1ccccc1C(F)(F)F` (some centres undefined), the IC50 was 0.79 µM.

In the case of `O=C(NCCc1csc(-c2ccc(F)cc2)n1)c1ccco1`, the IC50 is 0.5 µM.

For `CNS(=O)(=O)c1ccccc1Nc1nc(Nc2ccnn2C)ncc1Cl`, the IC50 was 0.1 µM.

With `O=S1N=C(NCCCN(Cc2ccc(F)cc2)c2ccccn2)C(NCc2ccncc2)=N1` (centres undefined), the concentration for half-maximal inhibition (IC50) was 0.5 µM.

`Cc1ccccc1NS(=O)(=O)c1ccc2[nH]cc(C(=O)NC3CCCC3)c(=O)c2c1`: the IC50 was 0.63 µM.

For the molecule `COc1ccc(S(=O)(=O)NCc2ccc(-c3ccc(CN(C)CCO)cc3)cc2)cc1`, the IC50 is 3.2 µM.

Turning to `Cc1ccccc1CNc1cc(C2CC2)nc(-c2nccn2C)n1`, the IC50 was 1.6 µM.

Turning to `O=C(Cn1cnc2cc([N+](=O)[O-])ccc2c1=O)NCCc1ccc(Cl)cc1Cl`, the IC50 is > 40 µM (inactive).

For the molecule `N#Cc1nc(C=Cc2ccccc2)oc1NCc1cccnc1`, the IC50 was 32 µM.

For the molecule `COc1ccccc1-c1c(C)[nH]c2nc(N)nc(C)c12`, the IC50 was > 40 µM (inactive).

In the case of `O=S(=O)(NCC(c1cccnc1)N1CCN(c2ccc(F)cc2)CC1)c1cccs1` (centres undefined), the IC50 is > 40 µM (inactive).

`c1ccc(Nc2nc(-c3ccccn3)cc(N3CCOCC3)n2)cc1`: the IC50 was 13 µM.

For `Cc1cc(Br)sc1CNCCCNc1cc(=O)c2ccccc2[nH]1`, the IC50 is 0.1 µM.

In the case of `CS(=O)(=O)NC1CCC(Oc2cc3cnccc3cc2-c2ccsc2)CC1` (centres undefined), the IC50 was > 40 µM (inactive).

With `CCn1c(NC(=O)Cc2ccc(F)cc2)nc2ccccc21`, the IC50 is 5 µM.

On to `N#Cc1ccc(S(=O)(=O)N2CCC3(CCN(c4ccccc4)C3=O)CC2)cc1`, for which the IC50 is > 40 µM (inactive).

Regarding `COc1ccc(OC)c(S(=O)(=O)N(Cc2c(F)cccc2F)[C@@H]2CCN(C#N)C2)c1`, the IC50 is 0.79 µM.

As for `CC(CNS(=O)(=O)c1ccc(OC(F)F)cc1)c1ccc(NC(=O)c2ccncc2)cc1` (centres undefined), the IC50 is 20 µM.

Consider `COc1ccc(C2CC(c3ccc(NS(C)(=O)=O)cc3)=NN2C(=O)c2cccs2)cc1OC` (centres undefined), for which the IC50 was 25 µM.

Take `Cc1[nH]c2ccccc2c(=O)c1Cc1c(C)[nH]c2ccccc2c1=O`: the IC50 is > 40 µM (inactive).

`O=C(Nc1nc(-c2ccccn2)cs1)C1CCc2ccccc2C1` (centres undefined): the IC50 is 3.2 µM.

Regarding `O=c1cc(CSc2ccc(Cl)cc2)nc(-c2ccccn2)[nH]1`, the IC50 was 1 µM.

Take `CC(C)(C)C(=O)Nc1cc(C2CC2)nn1-c1nc2c(c(=O)[nH]1)CCCC2`: the IC50 is 0.2 µM.

`Cc1cc(=O)n2nc(Oc3ccc(C#N)cc3Cl)sc2n1`: the IC50 was 0.32 µM.

Regarding `CCS(=O)(=O)c1cccc(C(=O)Nc2nc(-c3ccccn3)cs2)c1`, the IC50 is 0.63 µM.

For the origin of these results see PubChem BioAssay AID1159562 (GlaxoSmithKline (GSK), 2015).
